From paper PMC3034772 (Pharmaceutical research, 2010)
Where “and” joins values, the source holds several entries; their conditions need not be identical. Equal entries are not always repeated. Where two headings read alike, the source gives them in different places.

Key:
[1] = PAMPA; for Pm^7.4: pH 7.4
[2] = In combo PAMPA-BBB model, calculated log Po in situ
[3] = physchem
[4] = Charge class Q, dominant calculated charge state at pH 7.4; assay type: physicochemical
[5] = mouse, in vivo; cited from earlier work
[6] = in vivo; cited from earlier work
[7] = physchem; remark: listed apart in the source
[8] = cited from earlier work
[9] = PAMPA; for Pm^7.4: pH 7.4; remark: listed apart in the source
[10] = dominant calculated concentration fraction of the drug in a charge state
[11] = difference observed minus calculated, external set, no efflux inhibition

SMILES	log PABL [1]	log Po [1]	log Ppara [1]	obs–calc (log Po^in situ) ([2]; no efflux inhibition)	pKa [3]	Q (charge class) [4, 10]	Pm^7.4 [1]	also measured
CNCC[C@@H](Oc1ccccc1C)c1ccccc1 [Atomoxetine]	−3.01	−1.83	−6.10	0.5	9.67	+		
O=c1[nH]c2ccccc2n1CCCN1CCC(n2c(=O)[nH]c3cc(Cl)ccc32)CC1 [Domperidone]					9.38	+		PS [5]: 16 10^−4 mLg^−1s^−1; PS [6]: 5 10^−4 mLg^−1s^−1; log PS [6]: −3.29
OCCN1CCN(CCCN2c3ccccc3Sc3ccc(C(F)(F)F)cc32)CC1 [Fluphenazine]	−3.24	−2.36	−5.54	−1.0	7.76	+	1326	
CC(=O)CC(c1ccccc1)c1c(O)c2ccccc2oc1=O (centres unmarked) [Warfarin]	−3.04	−3.21	−8.00			−	1.4	obs–calc (log Po^in situ) [2]: 0.4 and 0.5; pKa [7]: 4.75
COc1ccc(CCN2CCC(Nc3nc4ccccc4n3Cc3ccc(F)cc3)CC2)cc1 [Astemizole]	−3.54	−1.39	−6.54	−1.3		+	2422	obs–calc (log Po^in situ) ([2]; efflux inhibition mdr1a(−/−)): −1.2; pKa ([8]; ref [46]): 8.60; pKa ([8]; second pKa column, ref [46]): 5.84
CCCN1C[C@H](CSC)C[C@@H]2c3cccc4[nH]cc(c34)C[C@H]21 [Pergolide]	−3.25	−1.45	−6.20	0.4	9.45	+	315	
COc1ccc2c3c1O[C@H]1C(=O)CC[C@@]4(O)[C@@H](C2)N(C)CC[C@]314 [Oxycodone]					9			Q (charge class) [4]: +
NNCCc1ccccc1 [Phenelzine]	−4.58	−2.20	−6.86		7.66	+	2236	obs–calc (log Po^in situ) [2, 11]: −1.9
CN1CCN(CCCN2c3ccccc3Sc3ccc(C(F)(F)F)cc32)CC1 [Trifluoperazine]	−3.32	−1.96	−5.94		8.22	+	1442	obs–calc (log Po^in situ) [2, 11]: −1.1
CC(C)(C)NC(=O)[C@@H]1CN(Cc2cccnc2)CCN1C[C@@H](O)C[C@@H](Cc1ccccc1)C(=O)N[C@H]1c2ccccc2C[C@H]1O [Indinavir]						0		obs–calc (log Po^in situ) [2, 11]: −0.4; obs–calc (log Po^in situ) ([2]; efflux inhibition mdr1a(−/−)): 0.3; log Po [9]: −5.17; pKa ([8]; ref [11]): 4.91
OCCOCCN1CCN(C2=Nc3ccccc3Sc3ccccc32)CC1 [Quetiapine]	−3.88	−2.98	−6.02			0	583	obs–calc (log Po^in situ) [2, 11]: 0.2; pKa ([8]; ref [38]): 7.30; pKa ([8]; second pKa column, ref [38]): 2.27
CN(C)CCC=C1c2ccccc2COc2ccccc21 [Doxepin]	−3.13	−1.60	−6.47	0.3		+	223	pKa ([8]; ref [11]): 9.45
Cc1cn([C@H]2C[C@H](N=[N+]=[N-])[C@@H](CO)O2)c(=O)[nH]c1=O [Zidovudine]						0		log Po [9]: −6.24; pKa ([7]; pKa): 9.61
CN(Cc1cnc2nc(N)nc(N)c2n1)c1ccc(C(=O)N[C@@H](CCC(=O)O)C(=O)O)cc1 [Methotrexate]						±		log PABL [9]: −4.73; Pm^7.4 [9]: 0.001; pKa ([7]; pKa): 5.55
CN1CCN2c3ncccc3Cc3ccccc3C2C1 (centres unmarked) [Mirtazapine]	−3.37	−2.61	−5.87	−0.2	7.91	0	579	
CNS(=O)(=O)Cc1ccc2[nH]cc(CCN(C)C)c2c1 [Sumatriptan]	−4.65	−4.86	−7.51		9.64	+	0.4	obs–calc (log Po^in situ) [2, 11]: 0.0
CCC1(C)CC(=O)NC1=O (centres unmarked) [Ethosuximide]		−5.83	−6.87	0.2	9.18	0	1.5	
O=C1CC2(CCCC2)CC(=O)N1CCCCN1CCN(c2ncccn2)CC1 [Buspirone]						+		pKa ([7]; pKa): 7.59
N[C@@H](Cc1ccc(O)c(O)c1)C(=O)O [L-DOPA]	−4.47	−7.81				±	0.01	obs–calc (log Po^in situ) [2, 11]: 0.7 and 0.9; pKa ([8]; ref [39]): 8.77
O=c1n(CCCN2CCN(c3cccc(Cl)c3)CC2)nc2ccccn12 [Trazodone]	−3.90	−2.94	−5.99	0.0	7.46	0	534	
COc1cccc2c1C(=O)c1c(O)c3c(c(O)c1C2=O)C[C@@](O)(C(C)=O)C[C@@H]3O[C@H]1C[C@H](N)[C@H](O)[C@H](C)O1 [Daunomycin]	−4.38	−2.71	−6.91				10	obs–calc (log Po^in situ) [2]: 0.8; Q (charge class) [4]: +; pKa ([8]; ref [39]): 12.00; pKa ([8]; second pKa column, ref [39]): 9.70
CCCN(CCC)S(=O)(=O)c1ccc(C(=O)O)cc1 [Probenecid]	−3.52	−2.97	−6.10	−0.7		−	0.06	obs–calc (log Po^in situ) ([2]; efflux inhibition mdr1a(−/−)): −0.6; pKa ([8]; ref [38]): 3.16
CN1CCCCC1CCN1c2ccccc2Sc2ccc([S+](C)[O-])cc21 (centres unmarked) [Mesoridazine]	−3.26	−4.33	−6.21			+	14	obs–calc (log Po^in situ) [2, 11]: 0.8; pKa ([7]; pKa): 7.79
CSc1ccc2c(c1)N(CCC1CCCCN1C)c1ccccc1S2 (centres unmarked) [Thioridazine]	−2.84	−1.27	−6.23	−0.8		+	1972	pKa ([8]; ref [11]): 8.82
CN[C@H]1CC[C@@H](c2ccc(Cl)c(Cl)c2)c2ccccc21 [Sertraline]					9.2	+		
COc1cc2nc(N3CCN(C(=O)c4ccco4)CC3)nc(N)c2cc1OC [Prazosin]								pKa ([7]; pKa): 6.79
CC(C)c1nc(CN(C)C(=O)N[C@H](C(=O)N[C@@H](Cc2ccccc2)C[C@H](O)[C@H](Cc2ccccc2)NC(=O)OCc2cncs2)C(C)C)cs1 [Ritonavir]						0		obs–calc (log Po^in situ) [2, 11]: −0.7 and −0.6; obs–calc (log Po^in situ) ([2]; efflux inhibition mdr1a(−/−)): 0.0 and 0.2; log Po [9]: −4.24; Pm^7.4 [9]: 57; pKa ([7]; pKa): 2.42
